Data: PubChem BioAssay (NCI)
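A five-concentration, 48-hour dose response in 96-well plates underlies each endpoint, interpolated linearly between surrounding concentrations. GI50 marks 50% less growth. The concentration for full growth arrest is given as TGI.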

Tests used:
Experiment in all cases: NCI-60 cell line screen, 48 h
SNB-19 CNS = system: SNB-19 CNS
SK-MEL-28 melanoma = system: SK-MEL-28 melanoma
KM12 colon = system: KM12 colon
SF-539 CNS = system: SF-539 CNS
SF-268 CNS = system: SF-268 CNS
U251 CNS = system: U251 CNS
HT29 colon = system: HT29 colon
NCI-H522 lung = system: NCI-H522 lung
HCT-15 colon = system: HCT-15 colon
NCI-H226 lung = system: NCI-H226 lung
MDA-MB-231 breast = system: MDA-MB-231 breast
SR leukemia = system: SR leukemia
NCI/ADR-RES ovarian = system: NCI/ADR-RES ovarian
786-0 renal = system: 786-0 renal
UO-31 renal = system: UO-31 renal
ACHN renal = system: ACHN renal
K-562 leukemia = system: K-562 leukemia
HOP-62 NSCLC = system: HOP-62 NSCLC
MALME-3M melanoma = system: MALME-3M melanoma
LOX IMVI melanoma = system: LOX IMVI melanoma
CAKI-1 renal = system: CAKI-1 renal
SNB-75 CNS = system: SNB-75 CNS
MOLT-4 leukemia = system: MOLT-4 leukemia
UACC-62 melanoma = system: UACC-62 melanoma
SN12C renal = system: SN12C renal
SW-620 colon = system: SW-620 colon
SK-OV-3 ovarian = system: SK-OV-3 ovarian
SK-MEL-5 melanoma = system: SK-MEL-5 melanoma
COLO 205 colon = system: COLO 205 colon
OVCAR-5 ovarian = system: OVCAR-5 ovarian
RXF 393 renal = system: RXF 393 renal
TK-10 renal = system: TK-10 renal
OVCAR-4 ovarian = system: OVCAR-4 ovarian
A498 renal = system: A498 renal
SF-295 CNS = system: SF-295 CNS
MCF7 breast = system: MCF7 breast
OVCAR-3 ovarian = system: OVCAR-3 ovarian
MDA-MB-435 = system: MDA-MB-435
RPMI-8226 leukemia = system: RPMI-8226 leukemia
HCC-2998 colon = system: HCC-2998 colon
M14 melanoma = system: M14 melanoma
HS 578T breast = system: HS 578T breast
BT-549 breast = system: BT-549 breast
NCI-H460 lung = system: NCI-H460 lung
HCT-116 colon = system: HCT-116 colon
HL-60(TB) leukemia = system: HL-60(TB) leukemia
A549 NSCLC = system: A549 NSCLC
EKVX NSCLC = system: EKVX NSCLC
PC-3 prostate = system: PC-3 prostate
DU-145 prostate = system: DU-145 prostate
NCI-H23 lung = system: NCI-H23 lung
HOP-92 NSCLC = system: HOP-92 NSCLC
IGROV1 ovarian = system: IGROV1 ovarian
OVCAR-8 ovarian = system: OVCAR-8 ovarian
UACC-257 melanoma = system: UACC-257 melanoma
CCRF-CEM leukemia = system: CCRF-CEM leukemia
SK-MEL-2 melanoma = system: SK-MEL-2 melanoma
T-47D breast = system: T-47D breast

In the case of `S=c1ssnc1-c1ccccn1`, the GI50 (SNB-19 CNS) is reported as 11.2 µM, the TGI (SNB-19 CNS) is reported as greater than 94.8 µM and the GI50 (SK-MEL-28 melanoma) is reported as 2.87 µM. The TGI (SK-MEL-28 melanoma) was 13 µM, the GI50 (KM12 colon) was 3.72 µM and the TGI (KM12 colon) was 15.4 µM. It also gave a GI50 (SF-539 CNS) of 2.52 µM, a TGI (SF-539 CNS) of 15.1 µM and a GI50 (SF-268 CNS) of 2.71 µM. The TGI (SF-268 CNS) was 20.1 µM, the GI50 (U251 CNS) was 4.63 µM and the TGI (U251 CNS) was 33.2 µM. For the same molecule, the GI50 (HT29 colon) was 5.28 µM, the TGI (HT29 colon) was greater than 40.7 µM and the GI50 (NCI-H522 lung) was 1.84 µM. The TGI (NCI-H522 lung) was 4.12 µM, the GI50 (HCT-15 colon) was 2.2 µM and the TGI (HCT-15 colon) was 15.7 µM. The GI50 (NCI-H226 lung) was 7.08 µM, the TGI (NCI-H226 lung) was 25.1 µM and the GI50 (MDA-MB-231 breast) was 3.44 µM. For the same molecule, the TGI (MDA-MB-231 breast) was 22 µM, the GI50 (SR leukemia) was 0.521 µM and the TGI (SR leukemia) was greater than 21.5 µM. The GI50 (NCI/ADR-RES ovarian) was 3.84 µM, the TGI (NCI/ADR-RES ovarian) was 39.7 µM and the GI50 (786-0 renal) was 2.54 µM. The TGI (786-0 renal) was greater than 25.4 µM, the GI50 (UO-31 renal) was 3.51 µM and the TGI (UO-31 renal) was 22.2 µM. For the same molecule, the GI50 (ACHN renal) was 2.25 µM, the TGI (ACHN renal) was 14.7 µM and the GI50 (K-562 leukemia) was 1.4 µM. The TGI (K-562 leukemia) was 16.2 µM, the GI50 (HOP-62 NSCLC) was 3.83 µM and the TGI (HOP-62 NSCLC) was 27.9 µM. The GI50 (MALME-3M melanoma) was 7.77 µM, the TGI (MALME-3M melanoma) was 36.1 µM and the GI50 (LOX IMVI melanoma) was 2.54 µM. The TGI (LOX IMVI melanoma) was 12.1 µM, the GI50 (CAKI-1 renal) was 3.07 µM and the TGI (CAKI-1 renal) was 16.3 µM. For the same molecule, the GI50 (SNB-75 CNS) was 3.13 µM, the TGI (SNB-75 CNS) was greater than 38.6 µM and the GI50 (MOLT-4 leukemia) was 1.27 µM. For the same molecule, the TGI (MOLT-4 leukemia) was 4.58 µM, the GI50 (UACC-62 melanoma) was 5.31 µM and the TGI (UACC-62 melanoma) was 21.1 µM. It also gave a GI50 (SN12C renal) of 5.91 µM, a TGI (SN12C renal) of 32 µM and a GI50 (SW-620 colon) of 2.72 µM. For the same molecule, the TGI (SW-620 colon) was 14.5 µM, the GI50 (SK-OV-3 ovarian) was 12.8 µM and the TGI (SK-OV-3 ovarian) was greater than 86.9 µM. For the same molecule, the GI50 (SK-MEL-5 melanoma) was 8.81 µM, the TGI (SK-MEL-5 melanoma) was greater than 37.6 µM and the GI50 (COLO 205 colon) was 3.96 µM. The TGI (COLO 205 colon) was 17.8 µM, the GI50 (OVCAR-5 ovarian) was 5.38 µM and the TGI (OVCAR-5 ovarian) was 25.1 µM. The GI50 (RXF 393 renal) was 3.05 µM, the TGI (RXF 393 renal) was 6.47 µM and the GI50 (TK-10 renal) was 5.04 µM. It also gave a TGI (TK-10 renal) of 32.4 µM, a GI50 (OVCAR-4 ovarian) of 9.36 µM and a TGI (OVCAR-4 ovarian) greater than 100 µM. For the same molecule, the GI50 (A498 renal) was 6.8 µM, the TGI (A498 renal) was 31.8 µM and the GI50 (SF-295 CNS) was 5.17 µM. The TGI (SF-295 CNS) was 24.9 µM, the GI50 (MCF7 breast) was 2.84 µM and the TGI (MCF7 breast) was greater than 35.9 µM. For the same molecule, the GI50 (OVCAR-3 ovarian) was 3.21 µM, the TGI (OVCAR-3 ovarian) was 17.8 µM and the GI50 (MDA-MB-435) was 3.28 µM. For the same molecule, the TGI (MDA-MB-435) was 16.3 µM, the GI50 (RPMI-8226 leukemia) was 2.58 µM and the TGI (RPMI-8226 leukemia) was 29.3 µM. The GI50 (HCC-2998 colon) was 3.4 µM, the TGI (HCC-2998 colon) was 12.7 µM and the GI50 (M14 melanoma) was 2.58 µM. For the same molecule, the TGI (M14 melanoma) was 19.6 µM, the GI50 (HS 578T breast) was 2.15 µM and the TGI (HS 578T breast) was 7.86 µM. The GI50 (BT-549 breast) was 6.38 µM, the TGI (BT-549 breast) was 28.7 µM and the GI50 (NCI-H460 lung) was 1.82 µM. The TGI (NCI-H460 lung) was 11.6 µM, the GI50 (HCT-116 colon) was 1.24 µM and the TGI (HCT-116 colon) was greater than 20.1 µM. For the same molecule, the GI50 (HL-60(TB) leukemia) was 1.37 µM, the TGI (HL-60(TB) leukemia) was 4.65 µM and the GI50 (A549 NSCLC) was 8.92 µM. It also gave a TGI (A549 NSCLC) of 37.9 µM, a GI50 (EKVX NSCLC) of 5.64 µM and a TGI (EKVX NSCLC) of 22 µM. The GI50 (PC-3 prostate) was 3 µM, the TGI (PC-3 prostate) was greater than 34.6 µM and the GI50 (DU-145 prostate) was 1.34 µM. The TGI (DU-145 prostate) was 13.8 µM, the GI50 (NCI-H23 lung) was 3.77 µM and the TGI (NCI-H23 lung) was 18.4 µM. The GI50 (HOP-92 NSCLC) was 1.67 µM, the TGI (HOP-92 NSCLC) was 6.73 µM and the GI50 (IGROV1 ovarian) was 1.81 µM. The TGI (IGROV1 ovarian) was 11 µM, the GI50 (OVCAR-8 ovarian) was 3.17 µM and the TGI (OVCAR-8 ovarian) was 23 µM. It also gave a GI50 (UACC-257 melanoma) of 3.1 µM, a TGI (UACC-257 melanoma) of 8.47 µM and a GI50 (CCRF-CEM leukemia) of 1.27 µM. For the same molecule, the TGI (CCRF-CEM leukemia) was 4.24 µM, the GI50 (SK-MEL-2 melanoma) was 1.88 µM and the TGI (SK-MEL-2 melanoma) was 5.73 µM. It also gave a GI50 (T-47D breast) of 5.59 µM and a TGI (T-47D breast) greater than 55.5 µM.
